# From patent US4843158A, “[2,2,1]Cryptand compounds that selectively bind sodium” (priority 1985, dated 1989)
# What was measured:
# [1] = Cation binding titration, sodium (fluorescence and 19F NMR titrations); settings: for Cation Binding Constant (log k), Na+: 37° C.
# Procedure: (§1) Fluorescence titrations: Ionic titrations of chelator fluorescence were performed on a Perkin Elmer 44E spectrofluorometer at a chelator concentration of 10 μM in 100 mM tris/acetic acid buffer at 37° C. Fluorescence emission from all of the chelators was monitored at a constant wavelength between 370 and 390 nm. The excitation spectra from 210 to 350 nm were recorded in the ratio mode and the proportion of M^n+ chelator complex was calculated from the fluorescence intensities at the most sensitive excitation wavelengths. The binding constants were estimated graphically from plots of log (bound/free) chelator against log free [M^n+ ]. (Slopes were 1.00±<0.05).
# (§2) NMR titrations: Nmr spectra were recorded on Bruker WH 200 or Am 400 spectrometers at 188 or 376 MHz respectively at chelator concentrations between 5 and 10 mM in the same buffer as for fluorescence titrations but containing 20% D2 O at 37° C. The spectra were obtained with an acquisition time of 1.0 sec. and a 90° pulse and were processed with resolution enhancement (-0.5 of the observed line width) and appropriate gaussian sensitivity enhancement. The proportion of M^n+ -chelator complex was calculated from the integrals of the resolved free and bound chelator ^19 F resonances, or from the chemical shift of complexes in fast exchange. The apparent affinities were determined graphically as for the fluorescence data, but using a two step iteration from the affinity derived from the fluorescence data when the dissociation constant was close to the chelator concentration in the nmr titrations.
# [2] = Cation induced 19F NMR chemical shift, potassium; format: binding; design: key: fast exchange; slow exchange; settings: 37° C.
# Procedure: as §2
# [3] = Cation binding titration, potassium (fluorescence and 19F NMR titrations); settings: 37° C.; from NMR
# Procedure: as §1
# as §2, with “The spectra were obtained with an acquisition time of 1.0 sec. and a 90° pulse and were processed with resolution enhancement (-0.5 of the observed line width) and appropriate gaussian sensitivity enhancement.” left out
# [4] = Cation induced 19F NMR chemical shift, sodium; format: binding; design: key: fast exchange; slow exchange; settings: 37° C.
# Procedure: as §2
# [5] = format: binding; settings: tris/acetic acid buffer
# Procedure: as §1
# [6] = Selectivity for sodium ions over potassium (and other) ions; format: binding
# cellular function = format: cell-based
# Procedure: (§3) Lymphocytes (1 ml packed cells) were prepared from pig mesenteric lymphnodes by standard procedure in RPM1 medium. The cells suspended in RPM1 (200 ml) were treated with the tetra-acetoxymethyl ester of Example 3 (4.5 mg) in DMSO (100 μl) and incubated at 37° C. for 1 hour. The cells were isolated by centrifugation and suspended in RPM1 (20 ml) in the spectrometer probe, with continuous dialysis against oxygenated medium and the data collected. The signal appeared after 3 hours and was collected for a further 3 hours.
# Lymphocytes = experiment: Intracellular sodium by 19F NMR in pig mesenteric lymph node lymphocytes; format: cell-based
# Procedure: as §3
structure (smiles),measurement,setting,value
O=C(O)CN(CC(=O)O)c1ccc2c(c1)OCCN1CCOCCN(CCO2)c2ccc(F)cc2OCCOc2cc(F)ccc21 [Compound 7a],"Cation Binding Constant (log k), Na+",[1]; from NMR,6
same,"Exchange (fast/slow), K+",[2],f
same,"Cation Binding Constant (log k), K+",[3],2.3
same,"Exchange (fast/slow), Na+",[4],s
O=C(O)CN(CC(=O)O)c1cccc(N2CCN3CCOc4ccc(N(CC(=O)O)CC(=O)O)cc4OCCN(CC2)c2ccc(F)cc2OCCOc2cc(F)ccc23)c1 [Compound 7d],"Cation Binding Constant (log k), Na+",[1]; from NMR and from fluorescence at 370 nm,1.6
same,"Cation Binding Constant (log k), H+",[5],7.0
same,"Exchange (fast/slow), Na+",[4],f
CC(=O)c1cc2c(cc1N(CC(=O)O)CC(=O)O)OCCN1CCN(c3cccc(N(CC(=O)O)CC(=O)O)c3)CCN(CCO2)c2ccc(F)cc2OCCOc2cc(F)ccc21 [Compound 8d],"Cation Binding Constant (log k), Na+",[1]; from NMR,1.3
same,"Exchange (fast/slow), Na+",[4],f
CC(=O)OCOC(=O)CN(CC(=O)OCOC(C)=O)c1cccc(N2CCN3CCOc4cc(C(C)=O)c(N(CC(=O)OCOC(C)=O)CC(=O)OCOC(C)=O)cc4OCCN(CC2)c2ccc(F)cc2OCCOc2cc(F)ccc23)c1 [Example 3],selectivity for sodium ions (in words),[6],high selectivity for sodium over all other ions and in particular over potassium
same,Kd,[1]; read-out: dissociation constant of the sodium complex,40 mM
same,adverse effect on cellular function,cellular function,has not shown any adverse effect on cellular function
same,19F chemical shift downfield from the standard,"Lymphocytes; 37° C., standard 1,2-bis (2-amino-5-fluorophenoxy) ethane-N,N,N',N'-tetracetic acid",5.99 ppm
same,intracellular sodium ion concentration indicated,Lymphocytes; from 19F chemical shift,about 13 mM
